These results are taken from US11331290B2, “Niclosamide for the treatment of cancer metastasis” (Max-Delbrück-Centrum für Molekulare Medizin in der …, priority 2011, dated 2022).

Common to all, as to type: cell-based, human
One test has as its system SW620 cells. In words: Soft agar colony formation assay. Particulars: 1 μM, 7 days. As for the experimental part:
(§1) Analysis of anchorage-independent cell proliferation was achieved by soft agar colony formation assay. A bottom layer containing 0.5% w/v agarose, RPMI-1640 medium, 10% FBS and 1 μM niclosamide or the respective amount of DMSO was added to a 6 cm Ø dish and incubated at room temperature under sterile conditions for 10 minutes. Onto the solidified bottom layer a top layer was added containing 8×10^3 cells, 0.33% w/v agarose, RPMI-1640 medium, 10% FBS and 1 μM niclosamide or the respective amount of DMSO. Cells were seeded as single cells into the soft agar and incubated in a humidified incubator at 37° C. and 5% CO2 for 7 days. Colony formation was visualized by 10× magnification for an overview and 40× magnification for single colonies in the Leica DM IL light microscope (Leica Microsystems). Colony quantification was achieved by counting cell colonies of more than 4 cells in 10 squares of […]. Colony formation experiments were repeated twice, each in triplicates.
(§2) (A) S100A4 expression under niclosamide treatment. Cells were treated with 1 μM niclosamide for 24 hours. S100A4 expression was analyzed with qRT-PCR and immunoblot. (B) Cell migration under niclosamide treatment. Migration rates of cells treated with 1 μM niclosamide for 24 hours were determined in a Boyden chamber assay values were normalized to solvent-treated SW620 cells. (C) Cell invasion under niclosamide treatment. Cells were seeded onto Matrigel covered transwells and treated with 1 μM niclosamide for 24 hours. Invaded cells in the lower chamber were counted and normalized to solvent-treated SW620 cells. Differences in solvent vs. niclosamide-treated cells were analyzed by Student's t test. Data represent mean±SE of at least two independent experiments each performed in triplicate. (D) Directed migration under niclosamide treatment. Wounds of 300 μM width were set in a 60% confluent monolayer of cells on day 1. Cells were treated daily with 1 μM niclosamide for 4 days. Microphotographs of day 4 are presented here with black lines indicating margins of the wound on day 1; scale bar represents 200 μM. Directed migration data shown are representatives of three independent experiments. (E) Adhesive cell proliferation under niclosamide treatment. Cells were treated daily with 1 μM niclosamide. The amount of viable cells per well was determined by MTT assay. (F) Anchorage-independent cell growth under niclosamide treatment. Cells were plated as single cells into 0.33% (w/v) agarose and treatment (solvent or 1 μM niclosamide) containing medium. After 7 days colonies were visualized by light microscopy at 10× (overview) and 40× (single colony) magnification. (G) Quantification of colonies formed. Number of colonies (of more than 4 cells) was counted and normalized to solvent-treated SW620 cells. Differences in solvent vs. niclosamide-treated cells were analyzed by Student's t test. Data represent mean mean±SE of at least two independent experiments each performed in duplicates.

For a further test, the system named is LS174T cells. In words: Soft agar colony formation assay. Particulars: 1 μM, 7 days. As for the experimental part: as §1, §2
The test system of the next test is DLD-1 cells. The test can be described thus: Soft agar colony formation assay. Particulars: 1 μM, 7 days. As for the experimental part:
as §1, §2

For another test, the system named is SW480 cells. In words: Soft agar colony formation assay. The following applies: 1 μM, 7 days. As for the experimental part:
as §1, §2

A further test has as its system HCT116-vector cells. In words: Boyden chamber invasion assay (Matrigel). Particulars: 24 h. As for the experimental part:
(§3) HCT116, SW620, LS174T, SW480 and DLD-1 cells were used in cell migration and invasion analysis performed with Boyden chamber assay. 400 μL containing 2.5×10^5 cells were seeded into each transwell chamber with filter membranes of 12.0 μm pore size (Millipore, Schwalbach, Germany). For invasion filter membranes were coated with 50 μL Matrigel (diluted 1:3 in RPMI-1640; BD Biosciences) 10 minutes before cells were seeded. Fresh medium (600 μL) were added to the bottom chamber and cells were allowed to attach to the insets for 15 hours. Both chambers were treated with 1 μM niclosamide or the respective amount of DMSO and incubated at 37° C. and 5% CO2 in a humidified incubator for 24 hours. Afterwards insets were removed and cells that had migrated through the membrane to the lower chamber were trypsinized and counted in a Neubauer chamber (LO-Laboroptik, Bad Homburg, Germany). Each well was counted ten times. Each migration or invasion experiment was performed in duplicate. The average number of migrated or invaded cells was determined for at least three independent experiments.
(§4) (A) Cell migration of HCT116-vector and HCT116-S100A4 cells exposed to niclosamide treatment. Cells were treated with 1 μM niclosamide for 24 hours and migration rates were measured with Boyden chamber assay. (B) Cell invasion of HCT116-vector and HCT116-S100A4 cells exposed to niclosamide treatment. Cells were treated with 1 μM niclosamide for 24 hours and cell invasion was determined by Boyden chamber assay. (C) Directed migration of HCT116-vector and HCT116-S100A4 cells exposed to niclosamide treatment analyzed by wound healing assay. Wounds of 300 μM width were set in a 60% confluent monolayer of HCT116-vector or HCT116-S100A4 cells on day 1. Cells were treated daily with 1 μM niclosamide for 4 days. Microphotographs of day 4 are presented here with black lines indicating margins of entered wound of day 1; scale bar represents 200 μM. Data represents three independent experiments. (D) Adhesive cell proliferation of HCT116-vector and HCT116-S100A4 cells exposed to niclosamide treatment. Cells were treated daily with 1 μM niclosamide and cell viability was determined with MTT assay. (E) Anchorage-independent cell growth of HCT116-vector and HCT116-S100A4 cells exposed to niclosamide treatment. Cells were plated as single cells into 0.33% (w/v) agarose and treatment (solvent or 1 μM niclosamide) containing medium. After 7 days colonies were visualized by light microscopy at 10× (overview) and 40× (single colony) magnification. (F) Quantification of colonies formed. Number of colonies (of more than 4 cells) was counted and normalized to solvent-treated HCT116-vector cells. Differences of niclosamide vs. solvent-treated cells were analyzed by Student's t test. […]

The subject of another test is HCT116-S100A4 cells. The test can be described thus: Boyden chamber invasion assay (Matrigel). Particulars: 1 μM, 24 h, statistically not significant. As for the experimental part:
as §3, §4

In the case of `O=C(Nc1ccc([N+](=O)[O-])cc1Cl)c1cc(Cl)ccc1O` [niclosamide, 2′,5-dichloro-4′-nitrosalicylanilide], the “anchorage-independent growth, colony size” value with SW620 cells, in the test with LS174T cells, in the test on DLD-1 cells and with SW480 cells was “clearly smaller cell colonies” each time. Further, the “number of colonies, mean difference control vs niclosamide” value in the test with SW620 cells is 96.4%; with LS174T cells, 74.6%; with DLD-1 cells it was 72.5%; with SW480 cells, 63.8%. In addition, the “number of colonies, mean % (normalized to solvent-treated SW620 cells)” value with SW620 cells (solvent control 100.0%) is 3.6%; with LS174T cells (solvent control 90.6%) it was 15.9%; in the test with DLD-1 cells (solvent control 82.6%), 10.1%; with SW480 cells (solvent control 68.1%), 4.3%. For the same compound, the “invasion, mean difference control vs niclosamide” value in the test with HCT116-vector cells (1 μM) is 69.9%; with HCT116-S100A4 cells, −11.1%. In the test on HCT116-vector cells (Homo sapiens, read-out: number of invaded cells, mean % of control), the activity at 1 µM turned out to be 30.1%. Further, the “invasion rate, mean %” value in the test with HCT116-S100A4 cells (solvent control 111.4%) is reported as 122.5%.
